A short description of the series: Discoloration (degradation) after nanoparticle processing by microfluidization. The conditions noted are these: after high energy fluidization. The format is physicochemical. The method, then:
Nanoparticles were fabricated from epinephrine base or epinephrine bitartrate (Bit) using high energy fluidization (microfluidization) techniques. […] Particles sizes were measured before and after size reduction using a Mastersizer (Malvern) and/or a NiComp 370 Submicron Particle Sizer (NiComp). The particles were lyophilized (freeze-dried) using a bench top lyophilizer (ART Inc.).
The main problem was discoloration (a brown color formed) due to degradation.

Turning to `CNC[C@H](O)c1ccc(O)c(O)c1` [Epinephrine Bit, epinephrine bitartrate], the “Sample Color after Processing (discoloration indicating instability)” value was “did not show any discoloration”.

Source of the values: patent US9877921B2 (NOVA SOUTHEASTERN UNIVERSITY, priority 2011, dated 2018).
